Measured values reported in article PMC3362645, “The Sigma Class Glutathione Transferase from the Liver Fluke Fasciola hepatica” (PLoS Neglected Tropical Diseases, 2012).

The molecules below were run against T1, rFhGST-S1 (recombinant Fasciola hepatica Sigma class glutathione transferase) (Fasciola hepatica, UniProt Q06A71) (assay: inhibition of GSH-CDNB conjugation, spectrophotometric, graphical IC50).
T1 sequence (Q06A71 1-211): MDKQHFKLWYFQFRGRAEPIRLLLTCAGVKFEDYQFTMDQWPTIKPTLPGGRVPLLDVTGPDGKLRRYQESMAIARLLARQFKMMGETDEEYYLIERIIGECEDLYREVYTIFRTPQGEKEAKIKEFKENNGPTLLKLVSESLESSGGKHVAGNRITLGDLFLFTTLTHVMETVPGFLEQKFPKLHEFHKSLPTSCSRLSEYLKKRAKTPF
Format: biochemical
With `C[C@H](CCC(=O)O)[C@H]1CC[C@H]2[C@@H]3[C@H](O)C[C@@H]4C[C@H](O)CC[C@]4(C)[C@H]3CC[C@]12C` [Chenodeoxycholic acid] the IC50 was 64 ± 9 µM.
`C[C@H](CCC(=O)O)[C@H]1CC[C@H]2[C@@H]3CC[C@@H]4C[C@H](O)CC[C@]4(C)[C@H]3C[C@H](O)[C@]12C` [Deoxycholic acid] showed an IC50 of 223 ± 21 µM.
For `C[C@H](CCC(=O)O)[C@H]1CC[C@H]2[C@@H]3[C@H](O)C[C@@H]4C[C@H](O)CC[C@]4(C)[C@H]3C[C@H](O)[C@]12C` [Cholic acid], the IC50 was 302 ± 73 µM.
Work on `C[S+]([O-])c1nc2cc(Cl)c(Oc3cccc(Cl)c3Cl)cc2[nH]1` (stereo not shown) [TCBZ SO, sulphoxide derivative of Triclabendazole] yielded an IC50 of 57 ± 5 µM.
